The values below come from US9279004B2, “Synthetic PnTx(19) peptide, pharmaceutical compositions and use” (priority 2012, dated 2016).

In series [1] the test system is strips of cavernous body isolated from mice. The series can be described thus: Relaxation of cavernous-body strips pre-contracted with phenylephrine. To be noted: acetylcholine 10^-4 M (control); pre-contracted by phenylephrine 10^-5 M. The text has this: FIG. 5—Effects of the toxin PnTx2-6 and of the peptide PnTx(19) (1×10^-6M) on the relaxation of strips of cavernous goodies of mice. The strips were pre-contracted with phenylefrine (10^-5 M) and relaxed with acetylcholine (10^-4M)-control, PnTx2-6 (5×10^-8M) and PnTx(19) (x10-6 M) (n=3).
Mice were sacrificed by decapitation, their penis were removed surgically and placed on a Petri dish containing Krebs Ringer bicarbonate—(NaCl, 118.1; KCl, 4.7; KH2PO4, 1.0; MgSo4, 1.0: NaHCO3, 25.0; CaCl2, 2.55; and Glucose, 11.1 mM), bubbled with a mixture of 95% O2 and 5% CO2. The gland, the spongy body and the urethra were removed and the cavernous bodies were desiccated with removal of the tunica albuginea and separated by cutting the fibrous septum between them. The strips of cavernous bodies measuring about 1×1×7 mm were mounted separately in a chamber, one end thereof being secured to an electrode and the other linked to a transducer. […]
The tissue was stretched by a passive force of 2.0 mN and stabilized for 60 minutes, the solution being replaced every 15 minutes. The changes in isometric force were recorded by using an isometric force transducer (World Precision Instruments, Inc., Sarasota, Fla., USA), connected to an amplifier (TBM-4 model; World Precision Instruments, Inc., USA), using software WinDaq Data Acquisition (Dada® Instruments, USA). […]

For series [2], the system named is cerebrocortical synaptosomes. The series can be described thus: Synaptosomal viability (lactate dehydrogenase activity, % lysis vs Triton X-100). The format is cell-based, rat. Conditions: for lysis (LDH activity relative to Triton X-100 = 100% of lysis): 60 min incubation. On the procedure: FIG. 3—Synaptosomal viability—verified by the activity of the enzyme lactate dehydrogenase, which oxidizes the NADH to NAD+. The latter determines a reduction in the reading (339 nm), which enables one to qualify the enzymatic activity. The reaction mixture was incubated for 60 min with PnTx(19) (10^-5 M; 3×10^-5 M; 10^-6 M; 3×10^-6 M) and the activity percentage evaluated with respect to the lysis triggered by the Triton X-100, considered=100% of lysis. The activity of this enzyme is proportional to the breakage of the synaptosomes, considering that this is an enzyme of the intracellular compartment.
Adult rats (240-300 g) were decapitated the brains were rapidly removed, immersed into homogenization solution (sucrose 0.32 M, EDTA 1 Mm and Dithiotreitol (DTT) 0.25 mM, pH=7.4) and kept in ice, then they were used in preparing the synaptosomes, as previously described by Dunkley et al 1988 (DUNKLEY, P. R.; Brain Research, 441, 59-71, 1988).
As control of the viability of the synaptosomes and also for verifying a possible lytic activity of the peptide, one carried out tests for activity of the enzyme lactate dehydrogenase, according to Kubowistz, Ott, 1943 (KUBOWISTZ, F., OTT, C. Biochem Z. 319, 94-117, 1943).

Series [3] deals with cerebrocortical synaptosomes of rats. The series can be described thus: Release of L-glutamate from cerebrocortical synaptosomes. The format is cell-based, rat. To be noted: 3×10^-5 M, compared with control (untreated synaptosomes), only active concentration of 10-6 to 3×10^-5 M. On the procedure:
FIG. 4—Effect of different concentrations of the PnTx(19) in releasing L-glutamate—ELISA Plate containing 300 μl/well of the synaptosome mixture (10% final volume) and NADP+(final concentration of 1 mM) in KRH with calcium (2 mM), kept at 37° C. under constant stirring was monitored. One carried out the reading of the fluorescence on the spectrofluorimeter for 2460 seconds. The enzyme GDH (35 units for the final volume of 300 μl) was added to the wells at 60 seconds; at 660 seconds, in different wells, one added different concentrations of PnTx(19) (“10^-5M, 3×10^-5 M, 10^-6 M and 3×10^-6 M”) and the KCI (33 mM). As negative controls, one used wells containing untreated synaptosomes […]. […]
The release of L-glutamate was analyzed according to the proposal of Nicholls et al. 1987 (NICHOLLS, D. et al. J. Neurochem. 49, 5057, 1987). In order to evaluate whether the peptide was capable of inducing release of L-glutamate in cerebrocortical synoptosomes of rats, just as the native toxin, one analyzed the effect thereof at the following concentrations: 10^-5M, 3×10^-5M, 10^-6M, and 2×10^-6 M, […].

Series [4] has as its system channels for sodium Nav1.5, present in cardiomyocytes. Kind of series: Patch-clamp of cardiac sodium current. Conditions: PnTx-19 1 μM. The class given is cell-based. An excerpt: FIG. 6—Effects of the peptide PnTx-19 and of the toxin PnTx2-6 in the cardiac sodium current. A—Effect of the toxin PnTx2-6 on the peak of sodium current (black arrow) and in the inactivation current (gray arrow). C—Effect of the peptide PnTx-19 on the peak of the sodium current and in the inactivation current. D—Course of time of peak in the sodium current, during the perfusion of PnTx-19 and PnTx-26. Each black circle indicates the amplitude of the Ina, measured every 1 second in a membrane potential of −20 mV. The gray bars indicate the moment when the cell was exposed to PnTx2-6 or PnTX-19 (peptide). The bar graphs summarize the effects of PnTx2-6 500 nM (n=7) and of the peptide PnTx-19 (peptide) 1 μM (n=12) in the decay constant (E) and reduction of the sodium current (F). Bars indicate average±SEM, *p<0.05 with respect to the controls.
Patch-clamp experiments were carried out with a view to analyze the effects of the toxin PnTx2-6 and of the peptide PnTx-19 on channels for sodium Nav1.5, present in cardiomyocytes.
For orientation: The patch-clamp technique gives a direct electrical read-out from membranes.

The subject of series [5] is isolated perfused heart. The series can be described thus: Isolated perfused heart: ventricular pressure, heart rate and ±dP/dt. To be noted: peptide 37.8 nmol/L-37.8 μmol/L. More on the design: species or system rats. On the procedure:
FIG. 7—Response dose curve of the peptide PnTx-19 and of the Toxin PnTx2-6 in the right (A) and (B) ventricular pressure, derived±dP/dt (C and D) and cardiac rate (E) of rats.
The rats were kept under a controlled cycle of 12 h light/darkness at a stable temperature with free access to water and food. They were decapitated 10 to 15 minutes after intraperitoneal injection of Heparin (200 IU). The thorax was opened, the heart was carefully desiccated and perfused through an aortic tip with Krebs-Ringer solution (KRS) containing (by mmol/L) NaCl (118.4), KCl (4.7), KH2PO4 (1.2), MgSO4.7H2O (1.2), CaCl2.2H2O (1.25), glucose (11.7) and NaHCO3 (26.5). The perfusion flow was kept constant (10 mL/min) at 37° C. and under constant oxygenation (5% CO2 and 95% O2). A balloon connected to a pressure transducer was inserted into the right ventricle, and one monitored the ventricular pressure, heart rate and derivative±dP/dt (FIG. 7). The balloon volume was adjusted to a final diastolic pressure of about 10 mm Hg. After a period for reaching the balance (30 to 40 minutes), 100 μmol/L carrier were injected (control), toxin at concentrations of 37.8 nmol/L-3.78 μmol/L or a peptide at concentrations of 37.8 nmol/L-37.8 μmol/L in perfusion buffer.
The results are the average±SEM. […]

In series [6] the test system is Swiss mice. The series can be described thus: Immunogenicity after subcutaneous immunization (indirect ELISA antibody titer). The class given is in vivo. To be noted: 10 μg subcutaneous, during the assays. On the procedure:
FIG. 8—Analysis of the antibody titer. A) Control: adjuvant (aluminum hydroxide). B) antibody titer after administration of the peptide PnTx-19 (10 μG) in different days.
Swiss, male, 20-23 gram mice were divided into 2 groups (Control—Adjuvant: aluminum hydroxide—FIG. 8 A and PnTx-19-10 μG—FIG. 8B), each group containing 4 animals. The mice were immunized by subcutaneous route. 21, 35 and 49 days from the first inoculation, the mice received a reinforcement of the above-mentioned preparations. To verify the presence of antibodies against the PnTx-19, the serum collected from the mouse tails was evaluated 15, 30, 40 and 60 days after the first inoculation through the indirect immunoenzymatic assay (ELISA), as described for other preparations (DEL PINO, F. A. B., BRANDELLI, A., GONZALES, J. C., HENRIQUES, J. A. P., DEWES, H., Effect of antibodies against β-N-acetylglucosaminidase on reproductive efficiency of the bovine tick Boophilus microplus. Vet. Parasitol. 79, 247-255, 1998).

The nature of series [7]: Water solubility of the peptide. The class given is physicochemical. Conditions: acetylated and amidated peptide. The text has this:
With a view to increasing the solubility of the peptide, in the present technology one has synthetized the PnTx(19) with modifications in the N-terminal portion (acetylation) and C-terminal portion (amidation).

On to `CC(=O)OCC[N+](C)(C)C` [acetylcholine], for which, in series [1], the “relaxation of cavernous-body strips” value turned out to be 81.6%.
Consider Ac-GERRQYFWIAWYKLANSKK-NH2 [PnTx(19)], for which the “lysis (LDH activity relative to Triton X-100 = 100% of lysis)” value is listed as 2% in series [2] (3×10^-5 M), 9% in series [2] (3×10^-6 M), 3.4% in series [2] (10^-5 M) and 6% in series [2] (10^-6 M). Besides, in series [2] (10^-6 M to 3×10^-5 M, compared with control (absence of the peptide)), the “effect on synaptosomal viability and/or exocytotic machinery” value is given as “does not affect the synaptosomal viability and/or exocytotic machinery”. Also, the “release of L-glutamate” value is given as “induced an increase in the release of glutamate” in series [3] and “capable of inducing significant release of L-glutamate” in series [3] (listed as PnTx19). Also, the “effect on density of the sodium current” value in series [4] is “this phenomenon was not observed”. In addition, the “effect on peak of sodium current and inactivation current” value in series [4] was “These effects were not observed”. Moreover, the “effect on ventricular pressure, ±dP/dt and heart rate” value in series [5] was “did not alter any of these parameters”. Moreover, in series [6], the “hypersensitivity or death reactions of the animals” value was “No hypersensitivity or death reactions”. For the same compound, in series [7], the solubility in water entry is “water-soluble”.
